5 molecules from US20240199614A1, “MACROCYCLIC EGFR INHIBITORS FOR THE TREATMENT OF CANCER” (Theseus Pharmaceuticals, Inc., priority 2021, published 2024) can be followed below.

The conditions of series [1]: amide bond, TBTU, 20.0 °C.
For series [2] the following is noted: amide bond, TBTU/Et3N, 20.0 °C.
The next series concerns the target EGFRL858R (Homo sapiens, UniProt P00533, L858R). Description: HTRF KinEASE-TK in vitro kinase assay, KINASE L. The series is classed as biochemical. The conditions noted are these: EGFR L858R kinase. The source says: (§1) The biological activity of compounds described herein were studied according to standard methods known in the art. Methods were used to study inhibition of EGFR, including mutant forms of EGFR comprising L858R, T790M, C797S, and/or Del19 mutations, or any combination thereof (e.g., L858R single, double, or triple mutants). Exemplary, non-limiting methods are described herein.
(§2) Assays using an in vitro kinase assay kit (HTRF KinEASE-TK kit) were used to study the inhibitory activity of compounds described herein with respect to EGFR mutants such as (1) EGFRL858R, (2) EGFR^L858R/T790M, and (3) EGFR^L858R/T790M/C797S.
A general note: TR-FRET usually uses a lanthanide donor and a delayed reading to cut background.

The next series concerns the target Ba/F3 EGFR-Del19/C797S (Homo sapiens, UniProt P00533, C797S, cells depend on it, form not given). Description: Ba/F3 viability assay (CellTiter-Glo), BAF3 DC. The series is classed as cell-based. To be noted: Ba/F3 EGFR-Del19/C797S cell viability.
From the text: as §1
(§3) Inhibition of cell proliferation was studied using Ba/F3 viability assays, including the Promega CellTiter-Glo cell viability assay. This assay was used to study the effect of compounds described herein in the following assays: (1) Ba/F3 EGFR-Del19/T790M; (2); Ba/F3 EGFR-Del19/C797S; and (3) Ba/F3 EGFR-Del19/T790M/C797S. P-EGFR Signaling Assays
(In general: In ATP-based viability assays light output follows the ATP content of the culture.)

For another series, the target named is Ba/F3 EGFR-Del19/T790M (Homo sapiens, UniProt P00533, T790M, cells depend on it, form not given). The experiment in a line: Ba/F3 viability assay (CellTiter-Glo), BAF3 DT. The series is classed as cell-based. The conditions noted are these: Ba/F3 EGFR-Del19/T790M cell viability.
Ba/F3 EGFR-Del19/T790M, sequence (P00533 with tags, fused parts or gaps DEL746-750/T790M, form open): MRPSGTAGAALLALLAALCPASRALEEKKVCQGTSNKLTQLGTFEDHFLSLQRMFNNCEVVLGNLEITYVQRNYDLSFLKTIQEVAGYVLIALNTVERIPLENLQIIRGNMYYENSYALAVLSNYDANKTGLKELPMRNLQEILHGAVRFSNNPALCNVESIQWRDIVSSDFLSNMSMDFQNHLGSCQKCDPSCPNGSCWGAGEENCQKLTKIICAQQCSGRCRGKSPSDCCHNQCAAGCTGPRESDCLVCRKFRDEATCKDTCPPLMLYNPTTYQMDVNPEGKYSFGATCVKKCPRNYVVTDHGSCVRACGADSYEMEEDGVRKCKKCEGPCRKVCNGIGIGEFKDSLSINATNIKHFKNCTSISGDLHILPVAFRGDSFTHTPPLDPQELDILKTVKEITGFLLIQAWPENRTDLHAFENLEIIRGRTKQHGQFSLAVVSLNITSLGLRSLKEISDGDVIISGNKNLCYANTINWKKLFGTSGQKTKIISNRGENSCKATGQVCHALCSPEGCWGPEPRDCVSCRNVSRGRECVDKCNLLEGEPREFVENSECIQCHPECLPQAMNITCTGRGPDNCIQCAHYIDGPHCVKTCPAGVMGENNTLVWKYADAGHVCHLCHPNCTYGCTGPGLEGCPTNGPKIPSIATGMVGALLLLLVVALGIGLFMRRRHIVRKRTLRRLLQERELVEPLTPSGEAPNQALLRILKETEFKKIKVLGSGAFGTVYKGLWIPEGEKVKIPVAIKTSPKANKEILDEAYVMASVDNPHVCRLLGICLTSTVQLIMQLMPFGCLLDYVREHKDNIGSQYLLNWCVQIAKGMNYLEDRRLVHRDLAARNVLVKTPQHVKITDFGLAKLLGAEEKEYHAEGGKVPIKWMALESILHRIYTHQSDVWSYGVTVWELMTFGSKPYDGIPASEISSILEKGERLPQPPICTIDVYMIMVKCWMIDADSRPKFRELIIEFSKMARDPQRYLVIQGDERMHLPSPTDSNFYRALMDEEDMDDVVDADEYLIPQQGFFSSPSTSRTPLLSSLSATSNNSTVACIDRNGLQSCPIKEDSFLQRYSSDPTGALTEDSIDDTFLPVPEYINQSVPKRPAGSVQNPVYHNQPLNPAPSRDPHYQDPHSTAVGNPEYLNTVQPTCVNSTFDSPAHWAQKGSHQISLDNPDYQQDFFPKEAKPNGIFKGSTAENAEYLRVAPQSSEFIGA
From the text: as §1, §3

For another series, the target named is EGFR^L858R/T790M/C797S (Homo sapiens, UniProt P00533, C797S/L858R/T790M). The experiment in a line: HTRF KinEASE-TK in vitro kinase assay, KINASE LTC. The series is classed as biochemical.
From the text: as §1, §2

For series [3], the target named is Ba/F3 EGFR-Del19/T790M/C797S (Homo sapiens, UniProt P00533, T790M/C797S, cells depend on it, form not given). The experiment in a line: Ba/F3 viability assay (CellTiter-Glo), BAF3 DTC. To be noted: Ba/F3 EGFR-Del19/T790M/C797S cell viability. Type of series: cell-based.
Ba/F3 EGFR-Del19/T790M/C797S, sequence (P00533 with tags, fused parts or gaps DEL746-750/T790M/C797S, form open): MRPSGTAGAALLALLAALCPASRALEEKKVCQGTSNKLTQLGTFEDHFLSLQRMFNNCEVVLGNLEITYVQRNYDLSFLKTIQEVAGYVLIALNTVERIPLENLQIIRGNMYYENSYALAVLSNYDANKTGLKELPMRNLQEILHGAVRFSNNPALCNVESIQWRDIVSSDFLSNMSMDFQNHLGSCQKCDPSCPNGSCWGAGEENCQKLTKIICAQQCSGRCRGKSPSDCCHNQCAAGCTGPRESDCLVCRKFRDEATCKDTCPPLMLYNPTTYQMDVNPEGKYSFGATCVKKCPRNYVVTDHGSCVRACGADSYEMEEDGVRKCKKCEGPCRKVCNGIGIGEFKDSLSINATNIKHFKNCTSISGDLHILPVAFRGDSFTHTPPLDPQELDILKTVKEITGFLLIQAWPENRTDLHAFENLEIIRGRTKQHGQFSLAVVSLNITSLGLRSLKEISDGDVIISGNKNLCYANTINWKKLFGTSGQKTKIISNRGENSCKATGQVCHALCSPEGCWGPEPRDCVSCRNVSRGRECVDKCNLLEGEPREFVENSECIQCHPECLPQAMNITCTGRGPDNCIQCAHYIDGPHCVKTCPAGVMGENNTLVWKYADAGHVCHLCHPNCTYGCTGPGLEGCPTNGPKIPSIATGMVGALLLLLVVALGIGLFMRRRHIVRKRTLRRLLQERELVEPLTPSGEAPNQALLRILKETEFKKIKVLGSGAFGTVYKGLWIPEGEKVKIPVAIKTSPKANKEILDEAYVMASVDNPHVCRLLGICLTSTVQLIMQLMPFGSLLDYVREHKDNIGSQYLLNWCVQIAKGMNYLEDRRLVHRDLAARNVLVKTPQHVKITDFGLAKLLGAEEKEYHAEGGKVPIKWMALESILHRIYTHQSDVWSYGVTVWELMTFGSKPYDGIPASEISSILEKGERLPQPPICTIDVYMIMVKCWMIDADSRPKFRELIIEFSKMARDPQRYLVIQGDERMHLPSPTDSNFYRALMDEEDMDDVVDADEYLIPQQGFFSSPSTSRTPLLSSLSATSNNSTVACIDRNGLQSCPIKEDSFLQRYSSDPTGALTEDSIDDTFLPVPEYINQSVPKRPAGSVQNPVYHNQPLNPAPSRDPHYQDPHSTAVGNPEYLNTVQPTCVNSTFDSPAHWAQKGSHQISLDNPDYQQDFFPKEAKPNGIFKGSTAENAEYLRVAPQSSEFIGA
From the text: as §1, §3

The next series concerns the target EGFR^L858R/T790M (Homo sapiens, UniProt P00533, L858R/T790M). Description: HTRF KinEASE-TK in vitro kinase assay, KINASE LT. The series is classed as biochemical.
From the text: as §1, §2

Like-named read-outs stand apart in the source and are kept apart here. Bounds are passed on as bounds.

EGFRL858R, sequence (P00533 25-1210 L858R): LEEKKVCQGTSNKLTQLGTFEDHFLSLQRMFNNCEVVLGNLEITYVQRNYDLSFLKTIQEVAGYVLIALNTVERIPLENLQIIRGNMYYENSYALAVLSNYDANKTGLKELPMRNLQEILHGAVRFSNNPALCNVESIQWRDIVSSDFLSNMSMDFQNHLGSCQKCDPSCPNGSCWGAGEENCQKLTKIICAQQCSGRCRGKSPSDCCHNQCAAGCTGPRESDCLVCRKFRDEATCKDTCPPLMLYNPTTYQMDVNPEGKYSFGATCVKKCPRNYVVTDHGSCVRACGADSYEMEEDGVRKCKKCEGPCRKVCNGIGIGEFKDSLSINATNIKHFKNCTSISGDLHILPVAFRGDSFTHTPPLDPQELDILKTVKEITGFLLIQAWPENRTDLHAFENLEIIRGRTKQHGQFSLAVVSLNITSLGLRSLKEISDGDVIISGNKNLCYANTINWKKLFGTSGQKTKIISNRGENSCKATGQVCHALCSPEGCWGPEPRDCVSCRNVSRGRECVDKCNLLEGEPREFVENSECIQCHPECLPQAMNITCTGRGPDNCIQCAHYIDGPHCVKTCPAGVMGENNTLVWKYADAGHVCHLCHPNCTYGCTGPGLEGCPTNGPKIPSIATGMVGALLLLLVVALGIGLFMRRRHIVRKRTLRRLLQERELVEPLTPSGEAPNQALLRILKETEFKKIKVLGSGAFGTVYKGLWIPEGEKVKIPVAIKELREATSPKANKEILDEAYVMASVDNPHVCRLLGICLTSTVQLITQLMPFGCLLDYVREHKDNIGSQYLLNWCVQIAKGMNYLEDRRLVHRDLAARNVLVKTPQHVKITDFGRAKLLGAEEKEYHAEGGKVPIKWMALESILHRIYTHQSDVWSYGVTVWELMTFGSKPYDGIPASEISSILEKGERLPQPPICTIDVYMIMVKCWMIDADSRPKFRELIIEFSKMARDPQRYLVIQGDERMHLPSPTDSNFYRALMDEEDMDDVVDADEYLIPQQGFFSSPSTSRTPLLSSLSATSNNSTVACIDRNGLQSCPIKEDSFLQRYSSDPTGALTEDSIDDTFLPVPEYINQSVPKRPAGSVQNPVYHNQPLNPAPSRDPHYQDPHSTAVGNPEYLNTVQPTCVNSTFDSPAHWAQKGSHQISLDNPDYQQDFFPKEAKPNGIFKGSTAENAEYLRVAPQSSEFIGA
EGFR^L858R/T790M, sequence (P00533 25-1210 T790M/L858R): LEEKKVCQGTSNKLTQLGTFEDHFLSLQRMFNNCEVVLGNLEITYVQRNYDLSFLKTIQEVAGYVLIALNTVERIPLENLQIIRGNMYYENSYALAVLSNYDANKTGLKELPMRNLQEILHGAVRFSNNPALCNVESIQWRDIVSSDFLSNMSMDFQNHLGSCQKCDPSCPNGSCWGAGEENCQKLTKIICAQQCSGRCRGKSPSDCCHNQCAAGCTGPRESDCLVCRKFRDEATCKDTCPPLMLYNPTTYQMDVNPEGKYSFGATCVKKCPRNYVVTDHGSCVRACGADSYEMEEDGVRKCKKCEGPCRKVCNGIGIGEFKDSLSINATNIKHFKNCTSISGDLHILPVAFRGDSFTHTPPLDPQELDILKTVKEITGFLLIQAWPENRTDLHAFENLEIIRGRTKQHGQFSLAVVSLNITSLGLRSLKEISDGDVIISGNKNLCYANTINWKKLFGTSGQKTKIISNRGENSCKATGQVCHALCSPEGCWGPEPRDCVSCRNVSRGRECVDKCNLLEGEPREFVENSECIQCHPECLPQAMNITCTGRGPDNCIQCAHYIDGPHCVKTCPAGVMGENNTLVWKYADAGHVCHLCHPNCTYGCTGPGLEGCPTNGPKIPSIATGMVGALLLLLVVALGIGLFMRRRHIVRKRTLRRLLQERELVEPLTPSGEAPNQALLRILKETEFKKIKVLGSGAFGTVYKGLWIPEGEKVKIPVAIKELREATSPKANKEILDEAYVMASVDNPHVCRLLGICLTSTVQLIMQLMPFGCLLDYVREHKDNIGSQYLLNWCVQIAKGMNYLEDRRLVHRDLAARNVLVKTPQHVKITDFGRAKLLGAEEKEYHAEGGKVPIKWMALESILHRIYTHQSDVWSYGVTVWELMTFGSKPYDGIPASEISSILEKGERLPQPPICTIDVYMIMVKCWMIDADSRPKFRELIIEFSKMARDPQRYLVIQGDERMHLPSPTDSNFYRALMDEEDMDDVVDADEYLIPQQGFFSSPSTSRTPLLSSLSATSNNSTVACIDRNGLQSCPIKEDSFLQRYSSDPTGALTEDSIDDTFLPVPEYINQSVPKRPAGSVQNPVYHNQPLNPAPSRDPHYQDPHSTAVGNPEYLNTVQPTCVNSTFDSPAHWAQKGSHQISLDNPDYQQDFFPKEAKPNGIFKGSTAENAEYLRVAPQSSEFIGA

Consider `Cc1cc2cc(n1)-c1cnn(C)c1CCCC[C@@H](C)Cn1c(nc3ccc(Br)cc31)NC2=O`, for which, in series [1] (from Cc1cc(C(=O)O)cc(-c2cnn(C)c2CCCC[C@@H](C)Cn2c(N)nc3ccc(Br)cc32)n1, TEA, DCM, 2.75 mM, 2.0 h), the ring closure, yield of all isomers was determined as 72.7%. The ring closure, isolated yield in series [2] (from Cc1cc(C(=O)O)cc(-c2cnn(C)c2CCCC[C@@H](C)Cn2c(N)nc3ccc(Br)cc32)n1, 15-membered ring, DCM, 2.75 mM) came out at 72.7%.

In series [1] (from Cc1cc(C(=O)O)cc(-c2cnn(C)c2CCCO[C@@H](C)Cn2c(N)nc3ccc(Br)cc32)n1, Et3N, DMF, 190.0 mM, 0.5 h), `Cc1cc2cc(n1)-c1cnn(C)c1CCCO[C@@H](C)CN1/C(=N/C2=O)Nc2ccc(Br)cc21` came in with a ring closure, yield of all isomers of 28.8%. The same molecule returned a ring closure, isolated yield in series [2] (from Cc1cc(C(=O)O)cc(-c2cnn(C)c2CCCO[C@@H](C)Cn2c(N)nc3ccc(Br)cc32)n1, 15-membered ring, DMF, 190.0 mM) of 28.8%.

As for `Cc1cc2cc(n1)-c1cnn(C)c1CCC[C@@H](C)CN1/C(=N/C2=O)Nc2ccc(Br)cc21`, the ring closure, isolated yield in series [2] (from Cc1cc(C(=O)O)cc(-c2cnn(C)c2CCC[C@@H](C)Cn2c(N)nc3ccc(Br)cc32)n1, 14-membered ring, DCM, 5.05 mM) was found to be 60.5%.

In turn, `Cc1cc2cc(n1)-c1cnn(C)c1N1CC(C1)OCCN1/C(=N/C2=O)Nc2ccc(Br)cc21` gave a ring closure, yield of all isomers in series [1] (from Cc1cc(C(=O)O)cc(-c2cnn(C)c2N2CC(OCCn3c(N)nc4ccc(Br)cc43)C2)n1, TEA, DCM, 3.99 mM, 1.0 h) of 60.3%. For the same molecule, in series [2] (from Cc1cc(C(=O)O)cc(-c2cnn(C)c2N2CC(OCCn3c(N)nc4ccc(Br)cc43)C2)n1, 15-membered ring, DCM, 3.99 mM), the ring closure, isolated yield came to 60.3%.

With `Cc1cc2cc(n1)-c1cnn(C)c1CCCO[C@@H](C)CN1/C(=N/C2=O)Nc2ccc(CN3CCN(C)CC3)cc21` [Compound (55), (11S,21E)-5,11,26-trimethyl-16-[(4-methylpiperazin-1-yl)methyl]-10-oxa-4,5,13,20,22,27-hexazapentacyclo[22.3.1.02,6.013,21.014,19]octacosa-1(28),2(6),3,14(19),15,17,21,24,26-nonaen-23-one], the figures for the concentration for half-maximal inhibition (IC50) at EGFRL858R, on EGFR^L858R/T790M/C797S and at EGFR^L858R/T790M were 100 to 1000 nM, below 50 nM and below 50 nM, respectively. Besides, the GI50 – broadly, the concentration at which growth is held to half of that of the control – on Ba/F3 EGFR-Del19/C797S is 100 to 1000 nM; on Ba/F3 EGFR-Del19/T790M it was 100 to 1000 nM; in series [3], 50 to 100 nM.
